Measurements taken from US6524785B1, “Perfusion and/or preservation and/or re-perfusion solution during organ transplant” (Centre National de la Recherche Scientifique, priority 1998, dated 2003).
Entries after “also recorded” stand apart in the source; their conditions may differ.

Legend:
[1] = tested on: transplanted heart; experiment: Heterotopic transplant of rat heart, 3 hours of ischemia, function and energy metabolism after 1 hour and 24 hours of re-perfusion; format: in vivo; conditions: with versus without arginine, after 1 hour and after 24 hours of re-perfusion; first results
Protocol: FIG. 20 represents, within the framework of a protocol corresponding to 3 hours of ischemia with arrest and preservation in CRMBM solution, the ratios of different energy metabolites after 1 hour of re-perfusion (represented by the white histogram marked with black lines) and 24 hours of re-perfusion (represented by the histogram with white and black hatching).
The cardiac function, as represented by the derivative of developed pressure (dP/dtmax), is indicated by the black histogram without arginine, and by the histogram with white and black hatching with arginine.
A heterotopic transplant of rat heart model has been developed, working where the function and the metabolism can be simultaneously analysed. In this model the functional and metabolic recovery has thus been studied after 1 hour and 24 hours of re-perfusion after ischemia of 3 hours, protected by the invention solution.
The study has made it possible to analyse the long term recovery of the heart, comparing 1 hour and 24 hours of re-perfusion.

[2] = tested on: isolated, perfused heart; experiment: Isolated perfused rat heart: cardioplegic arrest, cold ischemia and re-perfusion, hemodynamic and metabolic evaluation (P-31 MRS, biochemistry); conditions: L-arginine added versus without
Protocol: The hearts are removed from male Sprague Dawley rats of 350 to 375 g and anaesthetised by intraperitoneal injection of pentobarbital. The hearts are then perfused following the isovolumic contracting heart model. In this model, the heart is perfused with Krebs-Henseleit buffer at 37° C., without phosphate, in a retrograde manner via the aorta, at a constant pressure of 100 mmHg An incompressible balloon, placed in the left ventricle makes the contraction isovolumic. This model makes it possible to evaluate the cardiac function, by the developed pressure and to measure the compliance by measurement of the diastolic pressure. […]
The signals observed in the RMN spectrum of the P-31 are those of inorganic phosphate, phosphocreatine and the 3 phosphorous molecules of ATP. […] The areas and the positions of resonance are determined by using the NMR1 program (New Methods Research Syracuse, N.Y.) on an IBM Risc System 6000 operating system.
The areas measured are corrected by taking into consideration the saturation factors determined by comparing the acquired spectrums to completely relaxed spectrums. The areas of different metabolites can thus be converted into concentrations by referring to the ATPβ area, taking into consideration a cytosolic concentration of 11.6 mM for the ATP (determined by high pressure liquid chromatography). […]

In the case of `N=C(N)NCCC[C@H](N)C(=O)O` [L-arginine], the “functional recovery of the heart, effect of L-arginine” value [1] is reported as “beneficial effect”, the “content in adenylic nucleotides” value ([2]; 8 hours of ischemia and re-perfusion, HPLC) is reported as “without however affecting” and the “pool of amino acids during re-perfusion” value ([2]; protocol 3: 8 hours of ischemia, HPLC in frozen hearts) is reported as “greater pool of amino acids; also recorded: limits the depletion”.
